The results in this text go back to patent publication US7501442B2, “Biphenyl compounds useful as muscarinic receptor antagonists” (Theravance, Inc., priority 2004, dated 2009).

Where only a bound is given, the exact number is not on record here.

The target of experiment [1] is T1, hM2 receptor (Homo sapiens, UniProt P08172).
T1 construct: expressed in transfected cells; host or cells: CHO-K1 cells
T1 sequence (P08172 1-466): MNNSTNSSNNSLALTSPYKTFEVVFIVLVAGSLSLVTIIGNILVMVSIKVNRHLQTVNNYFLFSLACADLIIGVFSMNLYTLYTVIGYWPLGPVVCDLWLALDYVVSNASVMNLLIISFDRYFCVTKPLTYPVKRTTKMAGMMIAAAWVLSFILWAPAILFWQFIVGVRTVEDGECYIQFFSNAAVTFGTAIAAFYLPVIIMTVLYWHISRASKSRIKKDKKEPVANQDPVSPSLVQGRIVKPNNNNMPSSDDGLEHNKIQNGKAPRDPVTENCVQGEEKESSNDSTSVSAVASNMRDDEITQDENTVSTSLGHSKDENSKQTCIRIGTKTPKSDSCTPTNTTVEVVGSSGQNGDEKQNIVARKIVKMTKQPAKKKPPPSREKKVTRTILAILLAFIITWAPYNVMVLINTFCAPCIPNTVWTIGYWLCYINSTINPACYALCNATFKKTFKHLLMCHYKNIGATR
Nature of the experiment: Blockade of agonist-mediated inhibition of cAMP accumulation. It counts as cell-based. To be noted: CHO-K1 cells expressing the hM2 receptor; read-out: Ki value for blockade of oxotremorine-inhibition of forskolin-mediated cAMP accumulation. The method, then:
A. Blockade of Agonist-Mediated Inhibition of cAMP Accumulation
In this assay, the functional potency of a test compound was determined by measuring the ability of the test compound to block oxotremorine-inhibition of forskolin-mediated cAMP accumulation in CHO-K1 cells expressing the hM2 receptor.
cAMP assays were performed in a radioimmunoassay format using the Flashplate Adenylyl Cyclase Activation Assay System with ^125I-cAMP (NEN SMP004B, PerkinElmer Life Sciences Inc., Boston, Mass.), according to the manufacturer's instructions.
Cells were rinsed once with dPBS and lifted with Trypsin-EDTA solution (0.05% trypsin/0.53 mM EDTA) as described in the Cell Culture and Membrane Preparation section above. […] The cell pellet was then re-suspended in 10 mL dPBS, and the cells were counted with a Coulter Z1 Dual Particle Counter (Beckman Coulter, Fullerton, Calif.). […]
Reactions were incubated for 10 minutes at 37° C. and stopped by addition of 100 μL ice-cold detection buffer. Plates were sealed, incubated overnight at room temperature and counted the next morning on a PerkinElmer TopCount liquid scintillation counter (PerkinElmer Inc., Wellesley, Mass.). The amount of cAMP produced (pmol/well) was calculated based on the counts observed for the samples and cAMP standards, as described in the manufacturer's user manual. […]
(Cyclic AMP is a second messenger, typically raised through Gs and lowered through Gi signalling.)

Experiment [2] concerns ACh-induced bronchoconstriction. The experiment in a line: Duration of bronchoprotection in guinea pig model of acetylcholine-induced bronchoconstriction. It counts as in vivo. The following applies: inhalation, 1.5 hours post-dose. The method, then:
Determination of Duration of Bronchoprotection in Guinea Pig Model of Acetylcholine-Induced Bronchoconstriction
Groups of six male guinea pigs (Duncan-Hartley (HsdPoc:DH) Harlan, Madison, Wis.) weighing between 250 and 350 g were individually identified by cage cards. Throughout the study animals were allowed access to food and water ad libitum.
Test compounds were administered via inhalation over 10 minutes in a whole-body exposure dosing chamber (R&S Molds, San Carlos, Calif.). The dosing chambers were arranged so that an aerosol was simultaneously delivered to 6 individual chambers from a central manifold. Guinea pigs were exposed to an aerosol of a test compound or vehicle (WFI). […] This was measured gravimetrically by comparing pre- and post-nebulization weights of the filled nebulizer.
The bronchoprotective effects of test compounds administered via inhalation were evaluated using whole body plethysmography at 1.5, 24, 48 and 72 hours post-dose.
Forty-five minutes prior to the start of the pulmonary evaluation, each guinea pig was anesthetized with an intramuscular injection of ketamine (43.75 mg/kg), xylazine (3.50 mg/kg) and acepromazine (1.05 mg/kg). […] The depth of anesthesia was monitored and adjusted if the animal responded to pinching of its paw or if the respiration rate was greater than 100 breaths/minute. […]

Consider `CN(CCN1CCC(OC(=O)Nc2ccccc2-c2ccccc2)CC1)C(=O)CCCCCNCCc1ccc(O)cc1` [Example 1, Biphenyl-2-ylcarbamic Acid 1-[2-({6-[2-(4-Hydroxyphenyl)ethylamino]hexanoyl}methylamino)ethyl]piperidin-4-yl Ester], for which the inhibition constant Ki in experiment [1] is less than 10 nM. For the same molecule, the “PD2(50) for ACh-induced bronchoconstriction” value in experiment [2] was “less than 200 μg/mL”.

Usually Ki stands for the dissociation constant of the complex between target and ligand, obtained from inhibition or displacement.
